Tested on: KRAS-mutant PDC complex spheroid viability
Assay: Anticancer human tumor 186277-243-T-J2-PDC patient-derived colon adenocarcinoma cell line growth inhibition [KRAS2]
Conditions: for IC50: curve of first compound; for viability, T/C: stronger effect = lower value
In short: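 KRAS-mutant tumor cells were grown as spheroids with HUVEC endothelial cells and human MSCs as stroma. Targeted agents were tested alone and with KRAS pathway inhibitors. Doses started at or near clinical Cmax, or 10 microM, descending half-log.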

[1] = second compound 0.1 µM, first compound 0.0316 µM
[2] = second compound 0.1 µM, first compound 0.1 µM
[3] = second compound 0.1 µM, first compound 0.316 µM
[4] = second compound 0.1 µM, first compound 1 µM
[5] = second compound 0.1 µM, first compound 3.16 µM
[6] = second compound 0.1 µM, first compound 10 µM
[7] = second compound 0.316 µM, first compound 0.0316 µM
[8] = second compound 0.316 µM, first compound 0.1 µM
[9] = second compound 0.316 µM, first compound 0.316 µM
[10] = second compound 0.316 µM, first compound 1 µM
[11] = second compound 0.316 µM, first compound 3.16 µM
[12] = second compound 0.316 µM, first compound 10 µM
[13] = second compound 1 µM, first compound 0.0316 µM
[14] = second compound 1 µM, first compound 0.1 µM
[15] = second compound 1 µM, first compound 0.316 µM
[16] = second compound 1 µM, first compound 1 µM
[17] = second compound 1 µM, first compound 3.16 µM
[18] = second compound 1 µM, first compound 10 µM
[19] = second compound 3.16 µM, first compound 0.0316 µM
[20] = second compound 3.16 µM, first compound 0.1 µM
[21] = second compound 3.16 µM, first compound 0.316 µM
[22] = second compound 3.16 µM, first compound 1 µM
[23] = second compound 3.16 µM, first compound 3.16 µM
[24] = second compound 3.16 µM, first compound 10 µM
[25] = second compound 10 µM, first compound 0.0316 µM
[26] = second compound 10 µM, first compound 0.1 µM
[27] = second compound 10 µM, first compound 0.316 µM
[28] = second compound 10 µM, first compound 1 µM
[29] = second compound 10 µM, first compound 3.16 µM
[30] = second compound 10 µM, first compound 10 µM
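For viability, T/C in this document: viability read after seven days of compound exposure; 100% = DMSO vehicle-treated spheroids so lower means less viable.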

Structure (SMILES)	IC50 (second compound 0.1 µM) [nM]	IC50 (second compound 0.316 µM) [nM]	IC50 (second compound 1 µM) [nM]	IC50 (second compound 3.16 µM) [nM]	viability, T/C [1] [%]	viability, T/C [2] [%]	viability, T/C [3] [%]	viability, T/C [4] [%]	viability, T/C [5] [%]	viability, T/C [7] [%]	viability, T/C [8] [%]	viability, T/C [9] [%]	viability, T/C [10] [%]	viability, T/C [11] [%]	viability, T/C [13] [%]	viability, T/C [14] [%]	viability, T/C [15] [%]	viability, T/C [16] [%]	viability, T/C [17] [%]	viability, T/C [19] [%]	other results
CC1OCC2(CCN(c3cnc(Sc4ccnc(N)c4Cl)c(N)n3)CC2)C1N (stereo not given) + COc1cc2nc(C)nc(NC(C)c3cc(N)cc(C(F)(F)F)c3)c2cc1OC1CCOC1	> 10000	> 10000	> 10000	> 10000	103	96.1	104	108	109	106	104	93.9	100	115	99.9	101	103	104	114	98.9	IC50 (second compound 10 µM): 1520 nM; viability, T/C [6]: 112%; viability, T/C [12]: 98.1%; viability, T/C [18]: 85.4%; viability, T/C [20]: 87.6%; viability, T/C [21]: 96.7%; viability, T/C [22]: 114%; viability, T/C [23]: 111%; viability, T/C [24]: 78.8%; viability, T/C [25]: 93.6%; viability, T/C [26]: 96.7%; viability, T/C [27]: 93.5%; viability, T/C [28]: 50.5%; viability, T/C [29]: 39%; viability, T/C [30]: 9.31%
Cn1nccc1Nc1nccc(-c2cc3c(s2)C(C)(C)N(CCN2CCOCC2)C3=O)n1 + COc1cc2nc(C)nc(NC(C)c3cc(N)cc(C(F)(F)F)c3)c2cc1OC1CCOC1	266	301	220	193	90.7	105	41.4	9.64	5.24	93.1	97.9	48	9	4.51	92.2	100	28.7	6.92	3.64	91.6	IC50 (second compound 10 µM): 75.7 nM; viability, T/C [6]: 5.34%; viability, T/C [12]: 4.67%; viability, T/C [18]: 4.79%; viability, T/C [20]: 85.6%; viability, T/C [21]: 23.2%; viability, T/C [22]: 7.66%; viability, T/C [23]: 4.43%; viability, T/C [24]: 4.37%; viability, T/C [25]: 86.1%; viability, T/C [26]: 38.5%; viability, T/C [27]: 4.06%; viability, T/C [28]: 1.74%; viability, T/C [29]: 0.34%; viability, T/C [30]: 0.22%
Cn1nccc1Nc1nccc(-c2cc3c(s2)C(C)(C)N(CCN2CCOCC2)C3=O)n1 + C=CC(=O)N1CCN(c2nc(OCC3CCCN3C)nc3c2CCN(c2cccc4cccc(C)c24)C3)CC1CC#N	456	344	388	< 31.6	105	104	70.2	5.12	9.32	101	97.1	51.8	15.8	5.05	91	88.6	59.1	8.02	4.02	10.1	IC50 (second compound 0.0316 µM): 409 nM; viability, T/C (second compound 0.0316 µM, first compound 0.0316 µM): 111%; viability, T/C (second compound 0.0316 µM, first compound 0.1 µM): 96.7%; viability, T/C (second compound 0.0316 µM, first compound 0.316 µM): 63%; viability, T/C (second compound 0.0316 µM, first compound 1 µM): 5.23%; viability, T/C (second compound 0.0316 µM, first compound 3.16 µM): 6.25%; viability, T/C (second compound 0.0316 µM, first compound 10 µM): 6.65%; viability, T/C [6]: 6.37%; viability, T/C [12]: 7.23%; viability, T/C [18]: 4.26%; viability, T/C [20]: 1.3%; viability, T/C [21]: 0.45%; viability, T/C [22]: 0.51%; viability, T/C [23]: 0.15%; viability, T/C [24]: 0.16%
CCNC(=O)CC1N=C(c2ccc(Cl)cc2)c2cc(OC)ccc2-n2c(C)nnc21 (stereo not given) + C=CC(=O)N1CCN(c2nc(=O)n(-c3c(C)ccnc3C(C)C)c3nc(-c4c(O)cccc4F)c(F)cc23)C(C)C1	> 10000	> 10000	9860	2730	108	117	121	162	132	103	101	125	155	121	95.2	103	126	138	102	88.9	IC50 (second compound 10 µM): 306 nM; viability, T/C [6]: 101%; viability, T/C [12]: 87.9%; viability, T/C [18]: 49.4%; viability, T/C [20]: 87.1%; viability, T/C [21]: 107%; viability, T/C [22]: 101%; viability, T/C [23]: 43.3%; viability, T/C [24]: 14.7%; viability, T/C [25]: 75.8%; viability, T/C [26]: 87.1%; viability, T/C [27]: 46.7%; viability, T/C [28]: 18.4%; viability, T/C [29]: 9.07%; viability, T/C [30]: 4.83%
CC(=O)OC12COC1CC(O)C1(C)C(=O)C(O)C3=C(C)C(OC(=O)C(O)C(NC(=O)OC(C)(C)C)c4ccccc4)CC(O)(C(OC(=O)c4ccccc4)C21)C3(C)C (stereo not given) + C=CC(=O)N1CCN(c2nc(=O)n(-c3c(C)ccnc3C(C)C)c3nc(-c4c(O)cccc4F)c(F)cc23)C(C)C1	< 10	< 10	< 10	< 10	4.61	3.18	3.25	3.42	3.34	4	3.67	3.33	3.62	4	4.03	3.81	3.93	4	4.32	4.69	IC50 (second compound 10 µM): < 10 nM; viability, T/C (second compound 0.1 µM, first compound 0.01 µM): 6.27%; viability, T/C (second compound 0.316 µM, first compound 0.01 µM): 6.24%; viability, T/C (second compound 1 µM, first compound 0.01 µM): 6.82%; viability, T/C (second compound 3.16 µM, first compound 0.01 µM): 6.24%; viability, T/C [20]: 3.98%; viability, T/C [21]: 4.34%; viability, T/C [22]: 4.7%; viability, T/C [23]: 4.34%; viability, T/C (second compound 10 µM, first compound 0.01 µM): 6.5%; viability, T/C [25]: 5.4%; viability, T/C [26]: 5.36%; viability, T/C [27]: 5.19%; viability, T/C [28]: 5.08%; viability, T/C [29]: 4.88%
CC(C)NCC(C(=O)N1CCN(c2ncnc3c2C(C)CC3O)CC1)c1ccc(Cl)cc1 (stereo not given) + CNCc1ccccc1-c1csc(C(C)Nc2nc(C)nc3cc(OC)c(OC)cc23)c1	585	469	298	< 31.6	111	106	61.2	37.8	24.1	121	96.6	60.3	29.4	19.6	109	92.4	44.9	24.1	13.3	0.41	IC50 (second compound 10 µM): < 31.6 nM; viability, T/C [6]: 11.2%; viability, T/C [12]: 10.6%; viability, T/C [18]: 8.81%; viability, T/C [20]: 9.82%; viability, T/C [21]: 0.48%; viability, T/C [22]: 1.02%; viability, T/C [23]: 0.58%; viability, T/C [24]: 0.47%; viability, T/C [25]: 0.14%; viability, T/C [26]: 0.12%; viability, T/C [27]: 0.12%; viability, T/C [28]: 0.12%; viability, T/C [29]: 0.13%; viability, T/C [30]: 0.2%
